Measurements: PubChem BioAssay AID1259407 (Chemical Carcinogenesis Research Information System (CCRIS), 2018)
Active and inactive are the calls of the source. How the calls were made is not given here.

Test system: CCRIS mutagenicity, Ames/micronucleus/aberration tests
Experiment: CCRIS mutagenicity studies
[1] = Test System: AMES SALMONELLA TYPHIMURIUM, Strain/Indicator: TA98, Metabolic Activation: NONE, Method: STANDARD PLATE
[2] = Test System: AMES SALMONELLA TYPHIMURIUM, Strain/Indicator: TA98, Metabolic Activation: RAT, LIVER, S-9, AROCLOR 1254, Method: STANDARD PLATE

Question: `ClCC1CO1` (centres undefined) was tested. Which mutagenic call (End Point: IN VITRO CHROMOSOMAL ABERRATIONS, Test System: CHL CELLS, Metabolic Activation: NONE) did it give?
Answer: active; positive (structural changes)

Question: And the mutagenic call (End Point: IN VITRO CHROMOSOMAL ABERRATIONS, Test System: CHL CELLS, Metabolic Activation: RAT, LIVER, S-9, SODIUM PHENOBARBITAL AND 5,6-BENZOFLAVONE)?
Answer: active; positive (structural changes)

Question: And the mutagenic call (Test System: AMES SALMONELLA TYPHIMURIUM, Strain/Indicator: G46, Metabolic Activation: NONE, Method: STANDARD PLATE)?
Answer: active; positive

Question: What about the mutagenic call (Test System: AMES SALMONELLA TYPHIMURIUM, Strain/Indicator: TA97, Metabolic Activation: NONE, Method: STANDARD PLATE) of the same compound?
Answer: active; positive

Question: And the mutagenic call (Test System: AMES SALMONELLA TYPHIMURIUM, Strain/Indicator: TA97, Metabolic Activation: RAT, LIVER, S-9, AROCLOR 1254, Method: STANDARD PLATE)?
Answer: inactive; negative

Question: What about the mutagenic call [1] of the same compound?
Answer: inactive; negative

Question: And the mutagenic call (Test System: AMES SALMONELLA TYPHIMURIUM, Strain/Indicator: TA98, Metabolic Activation: RAT LIVER S-9, PHENOBARBITAL AND BETA-NAPHTHOFLAVONE, Method: PREINCUBATION)?
Answer: active; positive

Question: What about the mutagenic call [2] of the same compound?
Answer: inactive; negative

Question: And the mutagenic call (Test System: AMES SALMONELLA TYPHIMURIUM, Strain/Indicator: TA98, Metabolic Activation: S-9, Method: PREINCUBATION)?
Answer: inactive; negative

Question: And the mutagenic call (Test System: AMES SALMONELLA TYPHIMURIUM, Strain/Indicator: TA100, Metabolic Activation: HAMSTER, LIVER, S-9, AROCLOR 1254 (10%), Method: PREINCUBATION)?
Answer: active; positive

Question: What about the mutagenic call (Test System: AMES SALMONELLA TYPHIMURIUM, Strain/Indicator: TA100, Metabolic Activation: RAT LIVER S-9, PHENOBARBITAL AND BETA-NAPHTHOFLAVONE, Method: PREINCUBATION) of the same compound?
Answer: active; positive

Question: And the mutagenic call (Test System: AMES SALMONELLA TYPHIMURIUM, Strain/Indicator: TA100, Metabolic Activation: RAT, LIVER, S-9, AROCLOR 1254 (10%), Method: PREINCUBATION)?
Answer: active; positive

Question: And the mutagenic call (Test System: AMES SALMONELLA TYPHIMURIUM, Strain/Indicator: TA100, Metabolic Activation: S-9, Method: PREINCUBATION)?
Answer: active; positive

Question: And the mutagenic call (Test System: AMES SALMONELLA TYPHIMURIUM, Strain/Indicator: TA104, Metabolic Activation: NONE, Method: STANDARD PLATE)?
Answer: active; positive

Question: And the mutagenic call (Test System: AMES SALMONELLA TYPHIMURIUM, Strain/Indicator: TA1535, Metabolic Activation: HAMSTER, LIVER, S-9, AROCLOR 1254 (10%), Method: PREINCUBATION)?
Answer: active; positive

Question: What about the mutagenic call (Test System: AMES SALMONELLA TYPHIMURIUM, Strain/Indicator: TA1535, Metabolic Activation: NONE, Method: DESICCATOR) of the same compound?
Answer: active; positive

Question: And the mutagenic call (Test System: AMES SALMONELLA TYPHIMURIUM, Strain/Indicator: TA1535, Metabolic Activation: NONE, Method: STANDARD PLATE)?
Answer: active; positive

Question: And the mutagenic call (Test System: AMES SALMONELLA TYPHIMURIUM, Strain/Indicator: TA1535, Metabolic Activation: RAT LIVER S-9, PHENOBARBITAL AND BETA-NAPHTHOFLAVONE, Method: PREINCUBATION)?
Answer: active; positive

Question: And the mutagenic call (Test System: AMES SALMONELLA TYPHIMURIUM, Strain/Indicator: TA1535, Metabolic Activation: RAT, LIVER, S-9, AROCLOR 1254 (10%), Method: PREINCUBATION)?
Answer: active; positive

Question: What about the mutagenic call (Test System: AMES SALMONELLA TYPHIMURIUM, Strain/Indicator: TA1535, Metabolic Activation: RAT, LIVER, S-9, AROCLOR 1254, Method: STANDARD PLATE) of the same compound?
Answer: active; positive

Question: And the mutagenic call (Test System: AMES SALMONELLA TYPHIMURIUM, Strain/Indicator: TA1535, Metabolic Activation: S-9, Method: PREINCUBATION)?
Answer: active; positive

Question: What about the mutagenic call (Test System: AMES SALMONELLA TYPHIMURIUM, Strain/Indicator: TA1537, Metabolic Activation: NONE, Method: STANDARD PLATE) of the same compound?
Answer: inactive; negative

Question: And the mutagenic call (Test System: AMES SALMONELLA TYPHIMURIUM, Strain/Indicator: TA1537, Metabolic Activation: RAT LIVER S-9, PHENOBARBITAL AND BETA-NAPHTHOFLAVONE, Method: PREINCUBATION)?
Answer: inactive; negative

Question: And the mutagenic call (Test System: AMES SALMONELLA TYPHIMURIUM, Strain/Indicator: TA1537, Metabolic Activation: RAT, LIVER, S-9, AROCLOR 1254, Method: STANDARD PLATE)?
Answer: inactive; negative

Question: And the mutagenic call (Test System: AMES SALMONELLA TYPHIMURIUM, Strain/Indicator: TA1537, Metabolic Activation: S-9, Method: PREINCUBATION)?
Answer: inactive; negative

Question: And the mutagenic call (Test System: AMES SALMONELLA TYPHIMURIUM, Strain/Indicator: TA4001, Metabolic Activation: NONE, Method: STANDARD PLATE)?
Answer: active; positive

Question: And the mutagenic call (Test System: AMES SALMONELLA TYPHIMURIUM, Strain/Indicator: TA4006, Metabolic Activation: NONE, Method: STANDARD PLATE)?
Answer: active; positive

Question: What about the mutagenic call (Test System: CHINESE HAMSTER V-79, Strain/Indicator: V-79/6-THIOGUANINE, Metabolic Activation: NONE, Method: FLASK ASSAY) of the same compound?
Answer: inactive; negative

Question: And the mutagenic call (Test System: E. COLI, Strain/Indicator: WP2, Metabolic Activation: NONE, Method: STANDARD PLATE)?
Answer: active; positive

Question: What about the mutagenic call (Test System: E. COLI, Strain/Indicator: WP2, Metabolic Activation: RAT, LIVER, S-9, AROCLOR 1254, Method: STANDARD PLATE) of the same compound?
Answer: active; positive

Question: And the mutagenic call (Test System: E. COLI, Strain/Indicator: WP2 UVRA, Metabolic Activation: NONE, Method: PREINCUBATION)?
Answer: active; positive

Question: What about the mutagenic call (Test System: E. COLI, Strain/Indicator: WP2 UVRA, Metabolic Activation: NONE, Method: STANDARD PLATE) of the same compound?
Answer: active; positive

Question: And the mutagenic call (Test System: E. COLI, Strain/Indicator: WP2 UVRA, Metabolic Activation: RAT, LIVER, S-9, AROCLOR 1254, Method: STANDARD PLATE)?
Answer: active; positive

Question: And the mutagenic call (Test System: E. COLI, Strain/Indicator: WP2 UVRA, Metabolic Activation: S-9, Method: PREINCUBATION)?
Answer: active; positive

Question: What about the mutagenic call (Test System: E.COLI, Strain/Indicator: WP2UVRA, Metabolic Activation: NONE, Method: PREINCUBATION) of the same compound?
Answer: active; positive

Question: And the mutagenic call (Test System: E.COLI, Strain/Indicator: WP2UVRA, Metabolic Activation: RAT LIVER S-9, PHENOBARBITAL AND BETA-NAPHTHOFLAVONE, Method: PREINCUBATION)?
Answer: active; positive

Question: What does the source list for `O=c1oc2c([N+](=O)[O-])cccc2c2ccccc12`?
Answer: mutagenic call (Test System: AMES SALMONELLA TYPHIMURIUM, Strain/Indicator: TA98(1,8-DNP6), Metabolic Activation: NONE, Method: MICROSUSPENSION): active; positive; mutagenic call (Test System: AMES SALMONELLA TYPHIMURIUM, Strain/Indicator: TA98(1,8-DNP6), Metabolic Activation: NONE, Method: STANDARD PLATE): active; positive; mutagenic call (Test System: AMES SALMONELLA TYPHIMURIUM, Strain/Indicator: TA98(NR), Metabolic Activation: NONE, Method: MICROSUSPENSION): active; positive; mutagenic call (Test System: AMES SALMONELLA TYPHIMURIUM, Strain/Indicator: TA98(NR), Metabolic Activation: NONE, Method: STANDARD PLATE): inactive; negative; mutagenic call (Test System: AMES SALMONELLA TYPHIMURIUM, Strain/Indicator: TA98(NR), Metabolic Activation: RAT, LIVER, S-9, AROCLOR 1254, Method: STANDARD PLATE): active; positive; mutagenic call (Test System: AMES SALMONELLA TYPHIMURIUM, Strain/Indicator: TA98, Metabolic Activation: NONE, Method: MICROSUSPENSION): active; positive; mutagenic call [1]: active; positive; mutagenic call (Test System: AMES SALMONELLA TYPHIMURIUM, Strain/Indicator: TA98, Metabolic Activation: RAT, LIVER, S-9, AROCLOR 1254, Method: MICROSUSPENSION): active; positive; mutagenic call [2]: active; positive

Question: Which mutagenic call (End Point: IN VITRO CHROMOSOMAL ABERRATIONS, Test System: CHINESE HAMSTER OVARY CELLS, Metabolic Activation: NONE) does the source give for `ClC(Cl)=C(Cl)C(Cl)=C(Cl)Cl` here?
Answer: inactive; negative

Question: And the mutagenic call (End Point: IN VITRO CHROMOSOMAL ABERRATIONS, Test System: CHINESE HAMSTER OVARY CELLS, Metabolic Activation: RAT, LIVER, S-9, AROCLOR 1254)?
Answer: inactive; negative

Question: What about the mutagenic call (End Point: IN VITRO CHROMOSOMAL ABERRATIONS, Test System: CHL/IU CELLS, Metabolic Activation: NONE) of the same compound?
Answer: active; positive (structural changes)

Question: And the mutagenic call (End Point: IN VITRO MICRONUCLEUS, Test System: CHL/IU CELLS, Metabolic Activation: NONE)?
Answer: active; positive

Question: And the mutagenic call (Test System: AMES SALMONELLA TYPHIMURIUM, Strain/Indicator: TA100, Metabolic Activation: NONE, Method: PREINCUBATION)?
Answer: inactive; negative

Question: What about the mutagenic call (Test System: AMES SALMONELLA TYPHIMURIUM, Strain/Indicator: TA100, Metabolic Activation: NONE, Method: STANDARD PLATE) of the same compound?
Answer: active; positive

Question: And the mutagenic call (Test System: AMES SALMONELLA TYPHIMURIUM, Strain/Indicator: TA100, Metabolic Activation: RAT, LIVER, MICROSOMES AND GLUTATHIONE, Method: PREINCUBATION)?
Answer: active; positive

Question: And the mutagenic call (Test System: AMES SALMONELLA TYPHIMURIUM, Strain/Indicator: TA100, Metabolic Activation: RAT, LIVER, S-9, AROCLOR 1254 (30%), Method: PREINCUBATION)?
Answer: active; positive

Question: What about the mutagenic call (Test System: AMES SALMONELLA TYPHIMURIUM, Strain/Indicator: TA100, Metabolic Activation: RAT, LIVER, S-9, AROCLOR 1254, Method: STANDARD PLATE) of the same compound?
Answer: active; positive
